In US20240150377A1, “MODULATORS OF CYSTIC FIBROSIS TRANSMEMBRANE CONDUCTANCE REGULATOR” (VERTEX PHARMACEUTICALS INCORPORATED, priority 2020, published 2024) one finds activation, EC50 and Emax data, which are given here for 42 compounds.

The target of the assay is T1, CFTR (Homo sapiens, UniProt P13569, DEL508-508).
T1 construct: endogenous in cells; host or cells: primary human bronchial epithelial cells from CF subjects (F508del/MF-HBE), differentiated at air-liquid interface
Kind of assay: HBE assay: Ussing chamber assay of CFTR-mediated short-circuit currents. Type of assay: cell-based. The note with it: for EC50: read-out: HBE EC50. A digest of the protocol: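 CFTR-mediated Isc (μA/cm²) equals the peak response to apical 20 μM forskolin minus the residual after a 20 μM each BPO/GlyH-101/CFTR inhibitor 172 cocktail, recorded in Ussing chambers at Vhold 0 mV, 37 °C, pH 7.4, with 30 μM apical amiloride. Cells were F508del/MF HBE cultures preincubated 18-24 h with corrector (concentration range or 10 μM) plus 1 μM ivacaftor in 20% human serum.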

[1] abbreviates: Table 13, read-out: HBE Activity at 10 μM (%).
The mark [2] stands for this setting: Table 12, read-out: HBE Max Activity (%).
[3] abbreviates: Table 12, read-out: HBE Activity at 10 μM (%).
[4] abbreviates: Table 10, read-out: HBE Max activity (%).
Where [5] appears, read: Table 10, read-out: HBE activity at 10 (μM) (%).

Where two headings read alike, the source gives them in different places. A value given as a limit tells only on which side of the number the result lay.

T1 sequence (P13569 with tags, fused parts or gaps DEL508-508): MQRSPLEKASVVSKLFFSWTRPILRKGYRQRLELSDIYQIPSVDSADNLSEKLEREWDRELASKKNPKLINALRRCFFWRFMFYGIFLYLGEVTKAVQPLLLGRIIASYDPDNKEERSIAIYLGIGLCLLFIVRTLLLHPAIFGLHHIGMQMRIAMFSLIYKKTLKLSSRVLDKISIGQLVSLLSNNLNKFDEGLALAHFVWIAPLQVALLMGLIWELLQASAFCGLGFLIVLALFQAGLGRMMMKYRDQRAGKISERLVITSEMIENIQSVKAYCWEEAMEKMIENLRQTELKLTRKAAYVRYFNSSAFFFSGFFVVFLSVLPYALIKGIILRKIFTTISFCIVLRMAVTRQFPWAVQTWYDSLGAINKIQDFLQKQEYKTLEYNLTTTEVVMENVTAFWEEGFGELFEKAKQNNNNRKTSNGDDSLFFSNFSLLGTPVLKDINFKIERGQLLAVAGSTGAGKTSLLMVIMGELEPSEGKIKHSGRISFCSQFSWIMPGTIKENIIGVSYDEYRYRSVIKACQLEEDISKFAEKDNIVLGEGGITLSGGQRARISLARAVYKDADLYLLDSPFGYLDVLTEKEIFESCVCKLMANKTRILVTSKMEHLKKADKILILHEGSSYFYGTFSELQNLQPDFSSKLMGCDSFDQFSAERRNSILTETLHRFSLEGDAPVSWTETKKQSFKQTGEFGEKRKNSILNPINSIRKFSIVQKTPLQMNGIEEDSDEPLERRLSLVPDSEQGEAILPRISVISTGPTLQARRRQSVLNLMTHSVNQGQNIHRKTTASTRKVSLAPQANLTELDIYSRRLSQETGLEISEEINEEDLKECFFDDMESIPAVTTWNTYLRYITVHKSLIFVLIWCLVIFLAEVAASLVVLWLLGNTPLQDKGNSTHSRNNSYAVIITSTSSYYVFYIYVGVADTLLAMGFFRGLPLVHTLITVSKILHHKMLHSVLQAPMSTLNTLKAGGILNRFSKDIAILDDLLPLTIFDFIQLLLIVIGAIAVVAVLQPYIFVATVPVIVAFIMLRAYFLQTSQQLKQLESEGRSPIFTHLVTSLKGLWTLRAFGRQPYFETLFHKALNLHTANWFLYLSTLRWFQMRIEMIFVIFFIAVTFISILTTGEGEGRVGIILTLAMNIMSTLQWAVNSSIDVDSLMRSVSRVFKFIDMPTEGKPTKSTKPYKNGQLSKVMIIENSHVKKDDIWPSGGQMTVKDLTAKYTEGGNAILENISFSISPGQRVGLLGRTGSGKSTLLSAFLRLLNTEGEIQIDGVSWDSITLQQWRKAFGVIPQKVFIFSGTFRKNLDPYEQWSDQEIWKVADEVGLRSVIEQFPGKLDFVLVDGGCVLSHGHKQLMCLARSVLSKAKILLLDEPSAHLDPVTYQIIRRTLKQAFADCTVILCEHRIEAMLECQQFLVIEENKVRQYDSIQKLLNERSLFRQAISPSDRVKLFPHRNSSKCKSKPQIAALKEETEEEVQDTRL

`Cc1cccc(C)c1-c1cc2nc(n1)NS(=O)(=O)c1cccc(c1)C(=O)N(Cc1ccc(N3CCC(C(C)(C)C)CC3)cn1)[C@H](CC(C)(C)C)CO2` [Compound 258]: the activation at 10 µM under setting [1] was above 600%.
Same read-out and setting: in the case of `CCC(=O)CN1C(=O)c2cccc(c2)S(=O)(=O)Nc2nc(cc(-c3c(C)cccc3C)n2)OC[C@H]1CC(C)(C)C` [Compound 259] it was above 600%.
For the compound `CCC(C)C(CO)N(C)c1cncc(CN2C(=O)c3cccc(c3)S(=O)(=O)Nc3nc(cc(-c4c(C)cccc4C)n3)OC[C@H]2CC(C)(C)C)n1` (stereo partly drawn) [Compound 260], the EC50 (Table 12) is below 1 µM. For the same compound, the Emax under setting [2] is above 60%.
As to `Cc1cccc(C)c1-c1cc2nc(n1)NS(=O)(=O)c1cccc(c1)C(=O)N(Cc1ccc(C3CCOC3)cn1)[C@H](CC(C)(C)C)CO2` (stereo partly drawn) [Compound 261], under “Table 12”, the EC50 was below 1 µM. The Emax under setting [2] was above 60%.
On to `Cc1cccc(C)c1-c1cc2nc(n1)NS(=O)(=O)c1cccc(c1)C(=O)N(Cc1cncc(N(C)CCOC(C)C)n1)[C@H](CC(C)(C)C)CO2` [Compound 262], for which, for the setting “Table 12”, the EC50 was below 1 µM. Further, the Emax under setting [2] was above 60%.
As to `Cc1cccc(C)c1-c1cc2nc(n1)NS(=O)(=O)c1cccc(c1)C(=O)N(Cc1cncc(N3CC(C(=O)O)C(C(C)C)C3)n1)[C@H](CC(C)(C)C)CO2` (stereo partly drawn) [Compound 263], under setting [3], the activation at 10 µM lay in the range of 30 to 60%.
As for `Cc1cccc(C)c1-c1cc2nc(n1)NS(=O)(=O)c1cccc(c1)C(=O)N(Cc1nc(C(C)C)c[nH]1)[C@H](CC(C)(C)C)CO2` [Compound 264], under setting [3], the activation at 10 µM is below 30%. Also, the EC50 (Table 12) is below 1 µM. The Emax under setting [2] is above 60%.
For `Cc1cccc(C)c1-c1cc2nc(n1)NS(=O)(=O)c1cccc(c1)C(=O)N(Cc1nc(C(C)C)cn1COCC[Si](C)(C)C)[C@H](CC(C)(C)C)CO2` [Compound 265], under setting [3], the activation at 10 µM is above 600%.
As to `Cc1cccc(C)c1-c1cc2nc(n1)NS(=O)(=O)c1cccc(c1)C(=O)N(Cc1ncc(C(C)C)n1C)[C@H](CC(C)(C)C)CO2` [Compound 266], under setting [3], the activation at 10 µM is above 600%.
Consider `Cc1cccc(C)c1-c1cc2nc(n1)NS(=O)(=O)c1cccc(c1)C(=O)N(Cc1nc(C(C)C)cn1C)[C@H](CC(C)(C)C)CO2` [Compound 267], for which the EC50 (Table 12) was below 1 µM. The Emax under setting [2] was above 60%.
For `Cc1cccc(C)c1-c1cc2nc(n1)NS(=O)(=O)c1cccc(c1)C(=O)N(Cc1nc3ccccc3n1C)[C@H](CC(C)(C)C)CO2` [Compound 268], the EC50 (Table 12) is below 1 µM. In addition, the Emax under setting [2] was above 60%.
With `Cc1cccc(C)c1-c1cc2nc(n1)NS(=O)(=O)c1cccc(c1)C(=O)N(Cc1nc(C)c(C)n1C)[C@H](CC(C)(C)C)CO2` [Compound 269], the activation at 10 µM under setting [3] was above 600%.
Consider `Cc1cccc(C)c1-c1cc2nc(n1)NS(=O)(=O)c1cccc(c1)C(=O)N(Cc1cnc(OC(C)C)nc1)[C@H](CC(C)(C)C)CO2` [Compound 270], for which the EC50 (Table 12) is below 1 µM. Also, under setting [2], the Emax was above 60%.
Regarding `Cc1cccc(C)c1-c1cc2nc(n1)NS(=O)(=O)c1cccc(c1)C(=O)N(Cc1cnc(C3CCCCC3)nc1)[C@H](CC(C)(C)C)CO2` [Compound 271], the EC50 (Table 12) was below 1 µM. The Emax under setting [2] is above 60%.
Take `Cc1cccc(C)c1-c1cc2nc(n1)NS(=O)(=O)c1cccc(c1)C(=O)N(Cc1cnc(N3CCC(C)(C)C3)nc1)[C@H](CC(C)(C)C)CO2` [Compound 272]: the concentration for a half-maximal effect (EC50) (Table 12) was below 1 µM. Also, under setting [2], the Emax is above 60%.
Taken in the same sequence, the figures for `COC[C@@H]1CCCN1c1cncc(CN2C(=O)c3cccc(c3)S(=O)(=O)Nc3nc(cc(-c4c(C)cccc4C)n3)OC[C@H]2CC(C)(C)C)n1` [Compound 273] were below 1 µM and above 60%.
Turning to `COC[C@H]1CCCN1c1cncc(CN2C(=O)c3cccc(c3)S(=O)(=O)Nc3nc(cc(-c4c(C)cccc4C)n3)OC[C@H]2CC(C)(C)C)n1` [Compound 274], the concentration for a half-maximal effect (EC50) (Table 12) was below 1 µM. Under setting [2], the Emax is above 60%.
In the case of `COC[C@@H]1CCCN1c1cccc(CN2C(=O)c3cccc(c3)S(=O)(=O)Nc3nc(cc(-c4c(C)cccc4C)n3)OC[C@H]2CC(C)(C)C)n1` [Compound 275], the EC50 (Table 12) was below 1 µM. Besides, under setting [2], the Emax is above 60%.
Turning to `COC[C@H]1CCCN1c1cccc(CN2C(=O)c3cccc(c3)S(=O)(=O)Nc3nc(cc(-c4c(C)cccc4C)n3)OC[C@H]2CC(C)(C)C)n1` [Compound 276], for the setting “Table 12”, the EC50 was below 1 µM. Besides, the Emax under setting [2] was above 60%.
With `Cc1cccc(C)c1-c1cc(O)nc(NS(=O)(=O)c2cccc(C(=O)N(Cc3cccc(N4CCC[C@]4(C)C(=O)O)n3)[C@@H](C)CC(C)(C)C)c2)n1` [Compound 277], the activation at 10 µM under setting [3] is above 600%.
For `Cc1cccc(C)c1-c1cc2nc(n1)NS(=O)(=O)c1cccc(c1)C(=O)N(Cc1cccc(N3CCC[C@@]3(C)C(=O)O)n1)[C@H](CC(C)(C)C)CO2` [Compound 278], under setting [3], the activation at 10 µM is above 600%.
Take `Cc1cccc(C)c1-c1cc2nc(n1)NS(=O)(=O)c1cccc(c1)C(=O)N(Cc1cccc(N3CCC[C@H]3CO)n1)[C@H](CC(C)(C)C)CO2` [Compound 279]: under “Table 12”, the EC50 is below 1 µM. Moreover, under setting [2], the Emax is above 60%.
Regarding `Cc1cccc(C)c1-c1cc2nc(n1)NS(=O)(=O)c1cccc(c1)C(=O)N(Cc1cccc(N3CCC[C@@H]3CO)n1)[C@H](CC(C)(C)C)CO2` [Compound 280], the EC50 (Table 12) is below 1 µM. Further, the Emax under setting [2] is above 60%.
On to `Cc1cccc(C)c1-c1cc2nc(n1)NS(=O)(=O)c1cccc(c1)C(=O)N(Cc1cncc(N(C)CC(C)(C)C)c1)[C@H](CC(C)(C)C)CO2` [Compound 281], for which, under setting [3], the activation at 10 µM is above 600%.
As for `Cc1cccc(C)c1-c1cc2nc(n1)NS(=O)(=O)c1cccc(c1)C(=O)N(Cc1cncc(N3CCCC3(C)C)c1)[C@H](CC(C)(C)C)CO2` [Compound 282], under setting [3], the activation at 10 µM was above 600%.
As for `Cc1cccc(C)c1-c1cc2nc(n1)NS(=O)(=O)c1cccc(c1)C(=O)N(Cc1cncc(N3CCC[C@@H]3C)c1)[C@H](CC(C)(C)C)CO2` [Compound 283], the activation at 10 µM under setting [3] is above 600%.
Same read-out and setting: as for `Cc1cccc(C)c1-c1cc2nc(n1)NS(=O)(=O)c1cccc(c1)C(=O)N(Cc1cncc(N3CCC[C@H]3C)c1)[C@H](CC(C)(C)C)CO2` [Compound 284], the figure is above 600%.
On to `Cc1cccc(C)c1-c1cc2nc(n1)NS(=O)(=O)c1cccc(c1)C(=O)N(Cc1cncc(N3CCC(C)(C)C3)c1)[C@H](CC(C)(C)C)CO2` [Compound 285], for which the EC50 (Table 12) was below 1 µM. The Emax under setting [2] is above 60%.
Taken in the same sequence, the figures for `Cc1cccc(C)c1-c1cc2nc(n1)NS(=O)(=O)c1cccc(c1)C(=O)N(Cc1cncc(C3CCCCC3)c1)[C@H](CC(C)(C)C)CO2` [Compound 286] were below 1 µM and above 60%.
Turning to `Cc1cccc(C)c1-c1cc2nc(n1)NS(=O)(=O)c1cccc(c1)C(=O)N([C@@H](C)c1ccc(-c3cn[nH]c3)cc1)[C@H](CC(C)(C)C)CO2` [Compound 287], the Emax under setting [4] was above 60%.
Consider `Cc1cccc(C)c1-c1cc2nc(n1)NS(=O)(=O)c1cccc(c1)C(=O)N(Cc1ccc(C3=CCN=N3)cc1)[C@H](CC(C)(C)C)CO2` [Compound 289], for which the Emax under setting [4] is above 60%.
Turning to `Cc1cccc(C)c1-c1cc2nc(n1)NS(=O)(=O)c1cccc(c1)C(=O)N(Cc1ccc(-c3cc[nH]n3)cc1)[C@H](CC(C)(C)C)CO2` [Compound 290], under setting [5], the activation at 10 µM was above 60%.
Consider `Cc1cccc(C)c1-c1cc2nc(n1)NS(=O)(=O)c1cccc(c1)C(=O)N(Cc1ccc(-c3cnoc3)cn1)[C@H](CC(C)(C)C)CO2` [Compound 291], for which, under setting [4], the Emax was above 60%.
`Cc1cccc(C)c1-c1cc2nc(n1)NS(=O)(=O)c1cccc(c1)C(=O)N(Cc1ccc(-c3c(C)noc3C)cc1)[C@H](CC(C)(C)C)CO2` [Compound 292]: under setting [4], the Emax is above 60%.
For the compound `Cc1cccc(C)c1-c1cc2nc(n1)NS(=O)(=O)c1cccc(c1)C(=O)N([C@@H](C)c1ccc(-c3c(C)n[nH]c3C)cc1)[C@H](CC(C)(C)C)CO2` [Compound 293], the EC50 (Table 10) is below 1 µM. Further, the Emax under setting [4] is above 60%.
Turning to `Cc1cccc(C)c1-c1cc2nc(n1)NS(=O)(=O)c1cccc(c1)C(=O)N(C(C)c1ccc(-c3c(C)n[nH]c3C)cc1)[C@H](CC(C)(C)C)CO2` (stereo partly drawn) [Compound 294], the activation at 10 µM under setting [5] is above 60%.
Turning to `Cc1cccc(C)c1-c1cc2nc(n1)NS(=O)(=O)c1cccc(c1)C(=O)N(Cc1cccc(Cc3nccs3)c1)[C@H](CC(C)(C)C)CO2` [Compound 295], for the setting “Table 10”, the half-maximal effective concentration (EC50) is below 1 µM. For the same compound, the Emax under setting [4] was above 60%.
Regarding `Cc1cccc(C)c1-c1cc2nc(n1)NS(=O)(=O)c1cccc(c1)C(=O)N(Cc1ccc(Cc3nccs3)cc1)[C@H](CC(C)(C)C)CO2` [Compound 296], the EC50 (Table 10) is below 1 µM. Besides, under setting [4], the Emax was above 60%.
Taken in the same sequence, the figures for `Cc1cccc(C)c1-c1cc2nc(n1)NS(=O)(=O)c1cccc(c1)C(=O)N(Cc1ccc(-c3c[nH]nc3C3CC3)cn1)[C@H](CC(C)(C)C)CO2` [Compound 297] were below 1 µM and above 60%.
In the case of `Cc1cccc(C)c1-c1cc2nc(n1)NS(=O)(=O)c1cccc(c1)C(=O)N(Cc1ccc(-c3c(C)n[nH]c3C)cn1)[C@H](CC(C)(C)C)CO2` [Compound 298], under “Table 10”, the EC50 lay within 1 to 3 µM. Besides, under setting [4], the Emax is above 60%.
Taken in the same sequence, the figures for `Cc1cccc(C)c1-c1cc2nc(n1)NS(=O)(=O)c1cccc(c1)C(=O)N(Cc1ccc(-c3cn[nH]c3)cn1)[C@H](CC(C)(C)C)CO2` [Compound 299] were below 1 µM and above 60%.
Regarding `Cc1cccc(C)c1-c1cc2nc(n1)NS(=O)(=O)c1cccc(c1)C(=O)N(Cc1ncccc1-c1c[nH]nc1C1CC1)[C@H](CC(C)(C)C)CO2` [Compound 300], under setting [5], the activation at 10 µM was above 60%.

Broadly, the EC50 is the concentration at which the effect is half-maximal.
